The test system of test [1] is MIA PaCa-2 cells. Briefly: In-vitro anti-proliferative activity in combination with gemcitabine on MIA PaCa-2 cells. Particulars: 72 h. The format is cell-based. The method, then:
MIA PaCa-2 cells were seeded on a 384-well plate at 3000 cells/well, and 20 nM or 200 nM gemcitabine (GMC) was added. After overnight adherence culture, DMSO or the compounds serially 1:5-diluted from 100 nM were added. The viability was assessed 72 h after dosing by measuring the intracellular ATP content. The inhibition percentage of viable cells by the compounds was calculated by comparing with the DMSO group, and the IC50 value was calculated.

For test [2], the target named is recombinant protein Wee-1 (Homo sapiens (Human), UniProt P30291). In words: HTRF assay for inhibiting enzymatic activity of recombinant protein Wee-1. The format is biochemical. Particulars: compounds up to 200 nM, read-out: (IC50) Inhibitory activity against recombinant protein Wee-1. The method, then: The inhibitory effect of the compounds on the enzyme activity of recombinant protein Wee-1 was determined by HTRF. The procedures are as follows:
After DMSO or serially diluted compounds (up to 200 nM, 1:5 diluted) and recombinant proteins were co-incubated in a kinase buffer at 37° C. for 30 min before Fluorescein-PolyGAT and ATP were added, and the reaction was initiated by addition of a substrate. After incubation at room temperature for 90 min, an antibody and a detection solution were added, and after further incubation at room temperature for 60 min, fluorescence values were detected (excitation wavelength: 340 nm, emission wavelengths: 495 and 520 nm). The 520 nm/495 nm fluorescence intensity ratio value was calculated, and compared with that of the DMSO group, and then the inhibition percentages and IC50 values of the compounds were calculated.

The mark [3] stands for this setting: with 20 nM gemcitabine, read-out: in combination with 20 nM GMC IC50.
Setting [4] is: with 200 nM gemcitabine, read-out: in combination with 200 nM GMC IC50.

Among the data in patent US20240158369A1, “PYRIMIDINE COMPOUND AS WEE-1 INHIBITOR” (WIGEN BIOMEDICINE TECHNOLOGY (SHANGHAI) CO., LTD., priority 2021, published 2024) are IC50 values, retold here.

Where two headings read alike, the source gives them in different places.

Chain of recombinant protein Wee-1 (P30291 whole entry): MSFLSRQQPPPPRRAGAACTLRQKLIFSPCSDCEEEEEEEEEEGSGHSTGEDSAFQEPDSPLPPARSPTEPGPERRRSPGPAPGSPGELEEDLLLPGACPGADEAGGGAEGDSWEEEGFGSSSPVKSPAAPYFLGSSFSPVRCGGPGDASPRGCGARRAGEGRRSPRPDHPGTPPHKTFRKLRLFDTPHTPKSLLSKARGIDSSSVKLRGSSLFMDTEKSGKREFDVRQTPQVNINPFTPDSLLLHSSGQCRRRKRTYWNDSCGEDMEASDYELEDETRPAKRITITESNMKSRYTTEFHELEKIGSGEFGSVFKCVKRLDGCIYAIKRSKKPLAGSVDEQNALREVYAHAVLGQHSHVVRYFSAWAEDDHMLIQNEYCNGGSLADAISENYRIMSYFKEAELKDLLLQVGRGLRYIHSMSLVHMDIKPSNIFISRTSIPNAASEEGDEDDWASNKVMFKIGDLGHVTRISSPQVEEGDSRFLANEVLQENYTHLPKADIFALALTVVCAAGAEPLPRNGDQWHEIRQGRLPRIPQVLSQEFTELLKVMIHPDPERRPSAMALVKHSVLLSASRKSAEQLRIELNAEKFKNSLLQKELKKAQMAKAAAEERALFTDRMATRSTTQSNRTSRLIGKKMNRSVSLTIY

As to `CN1CCc2ccc(Nc3ncc(S(C)(=O)=O)c(Nc4cccc(N=S(C)(C)=O)n4)n3)cc2C1` [Compound 5], the half-inhibitory concentration (IC50) in test [1] (setting [3]) was above 100 nM; in test [2], above 50 nM.
The like results for `CN1CCc2ccc(Nc3ncc(C(N)=O)c(Nc4cccc(N=S(C)(C)=O)n4)n3)cc2C1` [Compound 6] were, in that order, above 100 nM and above 50 nM.
Regarding `CNC(=O)c1cnc(Nc2ccc3c(c2)CN(C)CC3)nc1Nc1cccc(N=S(C)(C)=O)n1` [Compound 7], the results for the IC50 in test [1] (setting [3]) and in test [2] were above 100 nM and above 50 nM, respectively.
Turning to `CN1CCc2ccc(Nc3ncc(C(=O)N(C)C)c(Nc4cccc(N=S(C)(C)=O)n4)n3)cc2C1` [Compound 8], the IC50 in test [1] (setting [3]) is above 100 nM; in test [2], above 50 nM.
With `CN1CCc2ccc(Nc3ncc(-c4ccco4)c(Nc4cccc(N=S(C)(C)=O)n4)n3)cc2C1` [Compound 9], the IC50 in test [1] (setting [3]) was above 100 nM; in test [2], above 50 nM.
The like results for `CN1CCc2ccc(Nc3ncc(-c4cn[nH]c4)c(Nc4cccc(N=S(C)(C)=O)n4)n3)cc2C1` [Compound 10] were, in that order, above 100 nM and above 50 nM.
In the case of `CN1CCc2ccc(Nc3ncc(Br)c(Nc4cccc(N=S(C)(C)=O)n4)n3)cc2C1` [Compound 11], the concentration for half-maximal inhibition (IC50) is 16 nM in test [1] (setting [3]) and at most 10 nM in test [2].
As to `Cc1cc(Nc2ncc(C#N)c(Nc3cccc(N=S(C)(C)=O)n3)n2)cc2c1CCN(C)C2` [Compound 12], the IC50 in test [1] (setting [3]) is 1.4 nM; in test [2] it was at most 10 nM.
The like results for `C=C(C)c1cc(Nc2ncc(C#N)c(Nc3cccc(N=S(C)(C)=O)n3)n2)cc2c1CCN(C)C2` [Compound 15] were, in that order, 1.8 nM and at most 10 nM.
The like results for `CN1CCc2c(cc(Nc3ncc(C#N)c(Nc4cccc(N=S(C)(C)=O)n4)n3)cc2C2=CCCC2)C1` [Compound 17] were, in that order, 11 nM and at most 10 nM.
Consider `CN1CCc2c(cc(Nc3ncc(C#N)c(Nc4cccc(N=S(C)(C)=O)n4)n3)cc2N2CCCC2)C1` [Compound 19], for which the IC50 in test [1] (setting [4]) is 640 nM; in test [2], at most 10 nM.
`CN1CCc2c(cc(Nc3ncc(C#N)c(Nc4cccc(N=S(C)(C)=O)n4)n3)cc2C(F)(F)F)C1` [Compound 20]: the IC50 is 25 nM in test [1] (setting [3]) and at most 10 nM in test [2].
For `COc1cc(Nc2ncc(C#N)c(Nc3cccc(N=S(C)(C)=O)n3)n2)cc2c1CCN(C)C2` [Compound 22], the 50% inhibitory concentration (IC50) in test [1] (setting [4]) was 1.2 nM; in test [2], at most 10 nM.
As to `CN1CCc2c(F)cc(Nc3ncc(C#N)c(Nc4cccc(N=S(C)(C)=O)n4)n3)cc2C1` [Compound 25], the 50% inhibitory concentration (IC50) in test [1] (setting [3]) was 18.6 nM; in test [2], at most 10 nM.
The like results for `CN1CCc2c(I)cc(Nc3ncc(C#N)c(Nc4cccc(N=S(C)(C)=O)n4)n3)cc2C1` [Compound 28] were, in that order, 14.5 nM and at most 10 nM.
The like results for `CN1Cc2cc(Nc3ncc(C#N)c(Nc4cccc(N=S(C)(C)=O)n4)n3)ccc2C2(CC2)C1` [Compound 29] were, in that order, 3.7 nM and at most 10 nM.
Consider `CN1CCc2c(C#N)cc(Nc3ncc(C#N)c(Nc4cccc(N=S(C)(C)=O)n4)n3)cc2C1` [Compound 41], for which the half-maximal inhibitory concentration (IC50) in test [1] (setting [4]) was above 100 nM; in test [2], 10 to 50 nM.
`C=Cc1cc(Nc2ncc(C#N)c(Nc3cccc(N=S(C)(C)=O)n3)n2)cc2c1CCN(C)C2` [Compound 42]: the IC50 in test [1] (setting [4]) is 10 nM; in test [2], at most 10 nM.
For the compound `C#Cc1cc(Nc2ncc(C#N)c(Nc3cccc(N=S(C)(C)=O)n3)n2)cc2c1CCN(C)C2` [Compound 43], the concentration for half-maximal inhibition (IC50) in test [1] (setting [3]) is 21.2 nM; in test [2], at most 10 nM.
Regarding `CN(C)C1CCc2ccc(Nc3ncc(C#N)c(Nc4cccc(N=S(C)(C)=O)n4)n3)cc2CC1` (stereo not drawn) [Compound 52], the half-maximal inhibitory concentration (IC50) in test [1] (setting [3]) was 4.5 nM; in test [2], at most 10 nM.
The like results for `CN1CCc2ccc(Nc3ncc(C#N)c(Nc4cccc(N=S(C)(C)=O)n4)n3)cc2CC1` [Compound 55] were, in that order, 11.3 nM and at most 10 nM.
With `CN(C)C1Cc2ccc(Nc3ncc(C#N)c(Nc4cccc(N=S(C)(C)=O)n4)n3)cc2C1` (stereo not drawn) [Compound 60], the IC50 in test [1] (setting [3]) is 10.3 nM; in test [2], at most 10 nM.
Regarding `CN1CCN(c2ccc(Nc3ncc(C#N)c(Nc4cccc(N=S(C)(C)=O)n4)n3)cc2)CC1` [Compound 61], the half-maximal inhibitory concentration (IC50) in test [1] (setting [3]) was 7.5 nM; in test [2] it was at most 10 nM.
Regarding `CN1CCC(N2CCN(c3ccc(Nc4ncc(C#N)c(Nc5cccc(N=S(C)(C)=O)n5)n4)cc3)CC2)CC1` [Compound 62], the half-inhibitory concentration (IC50) in test [1] (setting [3]) is 12.5 nM; in test [2], at most 10 nM.
The matching figures for `CN1CCN(c2cccc(Nc3ncc(C#N)c(Nc4cccc(N=S(C)(C)=O)n4)n3)c2)CC1` [Compound 63]: 18.4 nM and at most 10 nM.
With `CN1CCc2ccc(Nc3ncc(C#N)c(Nc4cccc(N=S(C)(C)=O)c4)n3)cc2C1` [Compound 64], the 50% inhibitory concentration (IC50) in test [1] (setting [3]) was 34 nM; in test [2], at most 10 nM.
Turning to `CN1CCc2c(CCO)cc(Nc3ncc(C#N)c(Nc4cccc(N=S(C)(C)=O)n4)n3)cc2C1` [Compound 132], the IC50 in test [2] is at most 10 nM.
On the same count and under the same terms, as for `CN1CCc2c(CN)cc(Nc3ncc(C#N)c(Nc4cccc(N=S(C)(C)=O)n4)n3)cc2C1` [Compound 134], the figure is at most 10 nM; as for `CN1CCc2c(CCN)cc(Nc3ncc(C#N)c(Nc4cccc(N=S(C)(C)=O)n4)n3)cc2C1` [Compound 135], at most 10 nM; as for `CN1CCc2c(CCCN)cc(Nc3ncc(C#N)c(Nc4cccc(N=S(C)(C)=O)n4)n3)cc2C1` [Compound 136], at most 10 nM.
Turning to `CN1CCc2c(cc(Nc3ncc(C#N)c(Nc4cncc(N=S(C)(C)=O)n4)n3)cc2C2CC2)C1` [Compound 138], the 50% inhibitory concentration (IC50) in test [2] was at most 10 nM.
On to `CN1CCc2c(cc(Nc3ncc(C#N)c(Nc4nccc(N=S(C)(C)=O)n4)n3)cc2C2CC2)C1` [Compound 139], for which, in test [2], the IC50 is at most 10 nM.
Take `CN1CCc2c(cc(Nc3ncc(C#N)c(Nc4ccnc(N=S(C)(C)=O)n4)n3)cc2C2CC2)C1` [Compound 140]: the 50% inhibitory concentration (IC50) in test [2] was at most 10 nM.
Same read-out and setting: as for `CCc1cc(Nc2ncc(C#N)c(Nc3cccc(N=S(C)(C)=O)n3)n2)cc2c1CCN(CC)C2` [Compound 141], the figure is at most 10 nM; as for `CCc1cc(Nc2ncc(C#N)c(Nc3cncc(N=S(C)(C)=O)n3)n2)cc2c1CCN(C)C2` [Compound 142], at most 10 nM.
Still for that read-out and setting: for `CCc1cc(Nc2ncc(C#N)c(Nc3nccc(N=S(C)(C)=O)n3)n2)cc2c1CCN(C)C2` [Compound 143] the value was at most 10 nM; for `CCc1cc(Nc2ncc(C#N)c(Nc3ccnc(N=S(C)(C)=O)n3)n2)cc2c1CCN(C)C2` [Compound 144], at most 10 nM.
`CCCc1cc(Nc2ncc(C#N)c(Nc3cccc(N=S(C)(C)=O)n3)n2)cc2c1CCN(C)C2` [Compound 149]: the half-inhibitory concentration (IC50) in test [2] is at most 10 nM.
As for `CCc1cc(Nc2ncc(C#N)c(Nc3cccc(N=S(C)(C)=O)n3)n2)cc2c1CCNC2` [Compound 151], the 50% inhibitory concentration (IC50) in test [2] is at most 10 nM.
Same read-out and setting: as for `CCc1cc(Nc2ncc(C#N)c(Nc3cccc(N=S(C)(=O)CC)n3)n2)cc2c1CCN(C)C2` (stereo not drawn) [Compound 157], the figure is at most 10 nM; as for `CCc1cc(Nc2ncc(C#N)c(Nc3cccc(N=S(=O)(CC)CC)n3)n2)cc2c1CCN(C)C2` [Compound 158], at most 10 nM.
Take `CCc1cc(Nc2ncc(C#N)c(Nc3cccc(N=S4(=O)CCC4)n3)n2)cc2c1CCN(C)C2` [Compound 159]: in test [2], the IC50 is at most 10 nM.
The same measure, in the same setting: as for `CCc1cc(Nc2ncc(C#N)c(Nc3cccc(N=S4(=O)CCCC4)n3)n2)cc2c1CCN(C)C2` [Compound 160], the figure is at most 10 nM.
